The source of these data is patent publication US11130752B2, “Aminopyrimidine compound” (Cardurion Pharmaceuticals, LLC, priority 2018, dated 2021).

In general, IC50 refers to the midpoint of a concentration-inhibition curve. Read a low IC50 as greater potency.

Counter-ions that a name gives are not always drawn. A value given as a limit tells only on which side of the number the result lay.

The target of this assay is T1, human CaMKIIδ (Homo sapiens, UniProt Q13557).
T1 construct: Full-length, glutathione-S-transferase(GST)-tagged, human CaMKIIδ was purchased from Carna Biosciences; purchased Carna Biosciences (CaMKIIδ); Wako Pure Chemical Industries (calmodulin) 02-111
Briefly: In vitro CaMKII inhibitory activity (binding assay, TR-FRET). Particulars: activity ranks. How it is done: Evaluation of In Vitro CaMKII Inhibitory Activity (Binding Assay)
In vitro CaMKIIδ inhibitory activity was evaluated by a binding assay.
Full-length, glutathione-S-transferase(GST)-tagged, human CaMKIIδ was purchased from Carna Biosciences (product #02-111, Kobe, Japan). Full-length bovine calmodulin was purchased from Wako Pure Chemical Industries (Osaka, Japan). Terbium-labeled anti-GST antibody (Tb-anti-GST Ab) was purchased from Life Technologies (Carlsbad, Calif., USA). Boron-dipyrromethene (BODIPY)-labeled probe ligand was synthesized as described below.
Time-Resolved Fluorescence Resonance Energy Transfer (TR-FRET) Assay
All assays were conducted using 384-well, white, flat-bottomed plates (product #784075, Greiner Bio-One, Frickenhausen, Germany) in kinase assay buffer, which consists of 50 mM HEPES pH 7.6, 10 mM MgCl2, 1 mM EGTA, 0.01% Brig-35, 0.1 mM DTT). The fluorescent probe ligand was added at a final concentration of 300 nM to solutions containing 0.21 nM Tb-anti-GST Ab, 1 mM CaCl2, 10 μg/mL calmodulin, and 0.5 nM GST-tagged CaMKIIδ. After shaded incubation of the protein-probe mixture on ice for 30 min, the premix was dispensed in the assay plate including test inhibitors with 4 fold dilution series of eight concentrations. After 1 hr incubation at room temperature, TR-FRET signals were measured in duplicate using an EnVision microplate reader (Perkin Elmer, Waltham, Mass., USA). The solution in each well was excited with a laser (λ=340 nm) reflected by a dichroic mirror (D400/D505 (Perkin Elmer) through an excitation filter (UV (TRF) 340, (Perkin Elmer)), and fluorescence from Tb and BODIPY were detected through two emission filters (CFP 495 (Perkin Elmer) for Tb, Emission 520 (Perkin Elmer) for BODIPY).
The percentage of inhibition of test compounds was calculated according to equation (1) Inhibition(%)=100×(μH−T)/(μH−μL) (1)
Where T is the value of the wells containing test compounds and μH and μL are the mean values of the 0% and 100% inhibition control wells, respectively. The values of the 0 and 100% controls were the signals obtained in the absence and presence of 3 μM its parent compound, respectively. The half maximal inhibitory concentration (IC50) of test compounds was calculated by fitting the data with the logistic equation using XLfit (IDBS, Guildford, UK). The IC50 was classified according to the following activity ranks.
A general note: In TR-FRET formats the signal depends on donor and acceptor labels being close together.

[1] abbreviates: Table 4, GST-tagged human CaMKIIδ.
The mark [2] stands for this setting: Table 1, GST-tagged human CaMKIIδ.

With `C[C@@H]1CN([C@H]2CC[C@H](n3cc(Nc4ncc(-c5ccc(Cl)c(O[C@@H](C)Cn6cnnn6)c5)cn4)c(OC[C@@H](C)O)n3)CC2)C[C@H](C)O1` [Example 482, (R)-1-((4-((5-(3-(((S)-1-(1H-tetrazol-1-yl)propan-2-yl)oxy)-4-chlorophenyl)pyrimidin-2-yl)amino)-1-((1r,4r)-4-((2S,6R)-2,6-dimethylmorpholino)cyclohexyl)-1H-pyrazol-3-yl)oxy)propan-2-ol], the IC50 under setting [1] is < 10 nM.
The same measure, in the same setting: with `C[C@@H]1CN([C@H]2CC[C@H](n3cc(Nc4ncc(-c5ccc(C#N)c(O[C@@H](C)Cn6cnnn6)c5)cn4)c(OCC4CCOCC4)n3)CC2)C[C@H](C)O1` [Example 483, 2-(((S)-1-(1H-tetrazol-1-yl)propan-2-yl)oxy)-4-(2-((1-((1r,4r)-4-((2S,6R)-2,6-dimethylmorpholino)cyclohexyl)-3-((tetrahydro-2H-pyran-4-yl)methoxy)-1H-pyrazol-4-yl)amino)pyrimidin-5-yl)benzonitrile] the figure was < 10 nM.
As to `C[C@@H](Cn1cnnn1)Oc1cc(-c2cnc(Nc3cn([C@H]4CC[C@H](N5[C@@H]6CC[C@H]5COC6)CC4)nc3OCCS(C)(=O)=O)nc2)ccc1Cl` [Example 86, 5-(3-(((S)-1-(1H-tetrazol-1-yl)propan-2-yl)oxy)-4-chlorophenyl)-N-(1-((1r,4r)-4-((1R,5S)-3-oxa-8-azabicyclo[3.2.1]octan-8-yl)cyclohexyl)-3-(2-(methylsulfonyl)ethoxy)-1H-pyrazol-4-yl)pyrimidin-2-amine], the half-inhibitory concentration (IC50) under setting [2] was < 10 nM.
Regarding `Cc1ncc(COc2nn([C@H]3CC[C@H](N4C[C@@H](C)O[C@@H](C)C4)CC3)cc2Nc2ncc(-c3ccc(C#N)c(O[C@@H](C)Cn4cnnn4)c3)cn2)s1` [Example 476, 2-(((S)-1-(1H-tetrazol-1-yl)propan-2-yl)oxy)-4-(2-((1-((1r,4r)-4-((2S,6R)-2,6-dimethylmorpholino)cyclohexyl)-3-((2-methylthiazol-5-yl)methoxy)-1H-pyrazol-4-yl)amino)pyrimidin-5-yl)benzonitrile], the IC50 under setting [1] is < 10 nM.
For the molecule `C[C@@H](Cn1cnnn1)Oc1cc(-c2cnc(Nc3cn([C@H]4CC[C@H](N5[C@@H]6CC[C@H]5COC6)CC4)nc3OCCO)nc2)ccc1Cl` [Example 243, 2-((4-((5-(3-(((S)-1-(1H-tetrazol-1-yl)propan-2-yl)oxy)-4-chlorophenyl)pyrimidin-2-yl)amino)-1-((1r,4r)-4-((1R,5S)-3-oxa-8-azabicyclo[3.2.1]octan-8-yl)cyclohexyl)-1H-pyrazol-3-yl)oxy)ethan-1-ol], under setting [2], the 50% inhibitory concentration (IC50) is < 10 nM.
As for `C[C@@H]1CN([C@H]2CC[C@H](n3cc(Nc4ncc(-c5ccc(Cl)c(O[C@@H](C)Cn6cnnn6)c5)cn4)c(OCc4nncn4C)n3)CC2)C[C@H](C)O1` [Example 473, 5-(3-(((S)-1-(1H-tetrazol-1-yl)propan-2-yl)oxy)-4-chlorophenyl)-N-(1-((1r,4r)-4-((2S,6R)-2,6-dimethylmorpholino)cyclohexyl)-3-((4-methyl-4H-1,2,4-triazol-3-yl)methoxy)-1H-pyrazol-4-yl)pyrimidin-2-amine], the IC50 under setting [1] was < 10 nM.
The same measure, in the same setting: the result for `COC(C)(C)CCOc1nn([C@H]2CC[C@H](N3CCOCC3)CC2)cc1Nc1ncc(-c2ccc(C#N)c(O[C@@H](C)Cn3cnnn3)c2)cn1` [Example 496, 2-(((S)-1-(1H-tetrazol-1-yl)propan-2-yl)oxy)-4-(2-((3-(3-methoxy-3-methylbutoxy)-1-((1r,4r)-4-morpholinocyclohexyl)-1H-pyrazol-4-yl)amino)pyrimidin-5-yl)benzonitrile] reads < 10 nM.
For the molecule `CCOCCCOc1nn([C@H]2CC[C@H](N3CCOCC3)CC2)cc1Nc1ncc(-c2ccc(Cl)c(O[C@@H](C)Cn3cnnn3)c2)cn1` [Example 34, 5-(3-(((S)-1-(1H-tetrazol-1-yl)propan-2-yl)oxy)-4-chlorophenyl)-N-(3-(3-ethoxypropoxy)-1-((1r,4r)-4-morpholinocyclohexyl)-1H-pyrazol-4-yl)pyrimidin-2-amine], the concentration for half-maximal inhibition (IC50) under setting [2] is < 10 nM.
Regarding `C[C@@H](Cn1cnnn1)Oc1cc(-c2cnc(Nc3cn([C@H]4CC[C@H](N5CCOCC5)CC4)nc3OCCn3cccn3)nc2)ccc1Cl` [Example 513, N-(3-(2-(1H-pyrazol-1-yl)ethoxy)-1-((1r,4r)-4-morpholinocyclohexyl)-1H-pyrazol-4-yl)-5-(3-(((S)-1-(1H-tetrazol-1-yl)propan-2-yl)oxy)-4-chlorophenyl)pyrimidin-2-amine], the IC50 under setting [1] was < 10 nM.
On the same count and under the same terms, the result for `C[C@@H]1CN([C@H]2CC[C@H](n3cc(Nc4ncc(-c5ccc(Cl)c(O[C@@H](C)Cn6cnnn6)c5)cn4)c(OCCO)n3)CC2)C[C@H](C)O1` [Example 481, 2-((4-((5-(3-(((S)-1-(1H-tetrazol-1-yl)propan-2-yl)oxy)-4-chlorophenyl)pyrimidin-2-yl)amino)-1-((1r,4r)-4-((2S,6R)-2,6-dimethylmorpholino)cyclohexyl)-1H-pyrazol-3-yl)oxy)ethan-1-ol] reads < 10 nM.
On to `C[C@@H](Cn1cnnn1)Oc1cc(-c2cnc(Nc3cn([C@H]4CC[C@H](N5CCOCC5)CC4)nc3O)nc2)ccc1Cl` [Example 462, 4-((5-(3-(((S)-1-(1H-tetrazol-1-yl)propan-2-yl)oxy)-4-chlorophenyl)pyrimidin-2-yl)amino)-1-((1r,4r)-4-morpholinocyclohexyl)-1H-pyrazol-3-ol], for which the IC50 under setting [2] was < 10 nM.
Regarding `C[C@@H](Cn1cnnn1)Oc1cc(-c2cnc(Nc3cn([C@H]4CC[C@H](N5CCOCC5)CC4)nc3OCCC(C)(C)O)nc2)ccc1C#N` [Example 495, 2-(((S)-1-(1H-tetrazol-1-yl)propan-2-yl)oxy)-4-(2-((3-(3-hydroxy-3-methylbutoxy)-1-((1r,4r)-4-morpholinocyclohexyl)-1H-pyrazol-4-yl)amino)pyrimidin-5-yl)benzonitrile], under setting [1], the half-maximal inhibitory concentration (IC50) was < 10 nM.
Still for that read-out and setting: the result for `COCCOCCCOc1nn([C@H]2CC[C@H](N3CCOCC3)CC2)cc1Nc1ncc(-c2ccc(C#N)c(O[C@@H](C)Cn3cnnn3)c2)cn1` [Example 490, 2-(((S)-1-(1H-tetrazol-1-yl)propan-2-yl)oxy)-4-(2-((3-(3-(2-methoxyethoxy)propoxy)-1-((1r,4r)-4-morpholinocyclohexyl)-1H-pyrazol-4-yl)amino)pyrimidin-5-yl)benzonitrile] reads < 10 nM.
`COCCCCOc1nn([C@H]2CC[C@H](N3CCOCC3)CC2)cc1Nc1ncc(-c2ccc(C#N)c(O[C@@H](C)Cn3cnnn3)c2)cn1` [Example 150, 2-(((S)-1-(1H-tetrazol-1-yl)propan-2-yl)oxy)-4-(2-((3-(4-methoxybutoxy)-1-((1r,4r)-4-morpholinocyclohexyl)-1H-pyrazol-4-yl)amino)pyrimidin-5-yl)benzonitrile]: the half-maximal inhibitory concentration (IC50) under setting [2] is < 10 nM.
Regarding `C[C@@H](Cn1cnnn1)Oc1cc(-c2cnc(Nc3cn([C@H]4CC[C@H](N5CCOCC5)CC4)nc3OCCCOCC(F)F)nc2)ccc1C#N` [Example 46, 2-(((S)-1-(1H-tetrazol-1-yl)propan-2-yl)oxy)-4-(2-((3-(3-(2,2-difluoroethoxy)propoxy)-1-((1r,4r)-4-morpholinocyclohexyl)-1H-pyrazol-4-yl)amino)pyrimidin-5-yl)benzonitrile], the IC50 under setting [2] was < 10 nM.
`C[C@@H](Cn1cnnn1)Oc1cc(-c2cnc(Nc3cn([C@H]4CC[C@H](N5CCOCC5)CC4)nc3OCc3ncccn3)nc2)ccc1Cl` [Example 509, 5-(3-(((S)-1-(1H-tetrazol-1-yl)propan-2-yl)oxy)-4-chlorophenyl)-N-(1-((1r,4r)-4-morpholinocyclohexyl)-3-(pyrimidin-2-ylmethoxy)-1H-pyrazol-4-yl)pyrimidin-2-amine] came in with a 50% inhibitory concentration (IC50) under setting [1] of 10 to 100 nM.
As for `COCCOCCOc1nn([C@H]2CC[C@H](N3CCOCC3)CC2)cc1Nc1ncc(-c2ccc(C#N)c(O[C@@H](C)Cn3cnnn3)c2)cn1` [Example 48, 2-(((S)-1-(1H-tetrazol-1-yl)propan-2-yl)oxy)-4-(2-((3-(2-(2-methoxyethoxy)ethoxy)-1-((1r,4r)-4-morpholinocyclohexyl)-1H-pyrazol-4-yl)amino)pyrimidin-5-yl)benzonitrile hydrochloride], the IC50 under setting [2] is < 10 nM.
For the molecule `C[C@@H](Cn1cnnn1)Oc1cc(-c2cnc(Nc3cn([C@H]4CC[C@H](N5CCOCC5)CC4)nc3OCc3cncs3)nc2)ccc1Cl` [Example 501, 5-(3-(((S)-1-(1H-tetrazol-1-yl)propan-2-yl)oxy)-4-chlorophenyl)-N-(1-((1r,4r)-4-morpholinocyclohexyl)-3-(thiazol-5-ylmethoxy)-1H-pyrazol-4-yl)pyrimidin-2-amine], the IC50 under setting [1] is < 10 nM.
